The target of series [1] is T1, ehDmc1 (Entamoeba histolytica, UniProt C4LTR6).
T1 construct: gene EHI_050430; 334 amino acid protein with N-terminal six-histidine tag
T1 sequence (C4LTR6 1-347): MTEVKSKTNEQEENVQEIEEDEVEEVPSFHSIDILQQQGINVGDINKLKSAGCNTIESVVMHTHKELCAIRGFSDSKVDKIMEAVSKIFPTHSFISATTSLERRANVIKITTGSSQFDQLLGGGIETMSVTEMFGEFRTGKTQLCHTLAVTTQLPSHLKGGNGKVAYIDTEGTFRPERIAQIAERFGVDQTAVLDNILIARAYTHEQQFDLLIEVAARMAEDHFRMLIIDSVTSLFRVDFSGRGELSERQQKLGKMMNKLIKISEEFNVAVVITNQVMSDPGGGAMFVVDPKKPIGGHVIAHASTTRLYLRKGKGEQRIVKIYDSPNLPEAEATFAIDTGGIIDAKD
Kind of series: D-loop assay with purified protein (IC50); also ssDNA EMSA, nuclease protection and ATPase assays. It counts as biochemical. (In general: In EMSA bound probe runs differently from free probe, usually more slowly.)

Substrate in series [2]: Nc1ncnc2c1ncn2[C@@H]1O[C@H](COP(=O)(O)OP(=O)(O)OP(=O)(O)O)[C@@H](O)[C@H]1O
Kind of series: Michaelis-Menten ATP hydrolysis assay (TLC), purified protein; Km. It counts as biochemical, Entamoeba histolytica. The settings on record: Mg2+.

On to `O=S(=O)(O)c1cc(N=C=S)ccc1C=Cc1ccc(N=C=S)cc1S(=O)(=O)O` [DIDS, 4,4′-diisothiocyanostilbene-2,2′-disulfonic acid], for which half-maximal inhibition in series [1] (IC50) was put at 4.5 ± 0.23 µM.

B1: ehDmc1 (Entamoeba histolytica HM-1:IMSS) (protein)
chain: MTEVKSKTNEQEENVQEIEEDEVEEVPSFHSIDILQQQGINVGDINKLKSAGCNTIESVVMHTHKELCAIRGFSDSKVDKIMEAVSKIFPTHSFISATTSLERRANVIKITTGSSQFDQLLGGGIETMSVTEMFGEFRTGKTQLCHTLAVTTQLPSHLKGGNGKVAYIDTEGTFRPERIAQIAERFGVDQTAVLDNILIARAYTHEQQFDLLIEVAARMAEDHFRMLIIDSVTSLFRVDFSGRGELSERQQKLGKMMNKLIKISEEFNVAVVITNQVMSDPGGGAMFVVDPKKPIGGHVIAHASTTRLYLRKGKGEQRIVKIYDSPNLPEAEATFAIDTGGIIDAKD
notes: 334 amino acid protein with N-terminal six-histidine tag
For B1, the Michaelis constant (Km) in series [2] came out at 480 ± 50 µM.

A word on the IC50: it is the concentration needed to halve the response being measured. One may read the Km as the concentration of substrate that gives half-maximal velocity.

Source of the values: paper PMC4589404, “Entamoeba histolytica Dmc1 Catalyzes Homologous DNA Pairing and Strand Exchange That Is Stimulated by Calcium and Hop2-Mnd1” (PLoS ONE, 2015).
